Like-named read-outs stand apart in the source and are kept apart here.
Columns and labels:
SJSA-1 cells = assay: Protocol B: SJSA-1 CellTiter-Glo luminescent cell viability assay
Description: Protocol B: SJSA-1 and SN40R2 Assays
The CellTiter-Glo® Luminescent Cell Viability Assay is a homogeneous method to determine the number of viable cells in culture based on quantitation of the ATP present, which signals the presence of metabolically active cells. […] 100 μl of CTG reagent (Promega #G7573) was added to all wells and luminescence was measured on the topcount. The EC50 values were determined from a sigmoidal 4 parameter curve fit using XLfit in conjunction with Activity Base (IDBS; Guildford, Surrey, UK).

SN40R2 cells = assay: Protocol B: SN40R2 CellTiter-Glo luminescent cell viability assay; details: for inhibition at 10 µM: read-out: SN40R2 % inhibition at 10; for IC50: read-out: SN40R2 IC50 (μM) (Protocol B)
[1] = read-out: SJSA1 IC50, Protocol B, SJSA-1
[2] = Homo sapiens, SJSA-1, read-out: SJSA1 IC50 (μM), Protocol B, SJSA-1
[3] = read-out: SJSA1 IC50 (μM) (Protocol B), SJSA-1, Protocol B
[4] = Homo sapiens, SJSA-1, read-out: SJSA1 IC50 (μM) (Protocol B), SJSA-1, Protocol B

Structure (SMILES) | IC50 (SJSA-1 cells; [1]) [µM] | inhibition at 10 µM (SN40R2 cells) [%] | IC50 (SJSA-1 cells; [2]) [µM] | also measured
[2H]C([2H])(O)C1(C([2H])([2H])O[C@]2(c3ccc(Cl)cc3)c3c(F)cc(C(O)(CC)c4cn(C)cn4)cc3C(=O)N2Cc2ccc(C#N)cn2)CC1 (stereo partly drawn) [Example 439, 6-{[(1R)-1-(4-chlorophenyl)-7-fluoro-1-({1-[hydroxy(^2H2)methyl]cyclopropyl}(^2H2)methoxy)-5-[1-hydroxy-1-(1-methyl-1H-imidazol-4-yl)propyl]-3-oxo-2,3-dihydro-1H-isoindol-2-yl]methyl}pyridine-3-carbonitrile] | 0.03 | 3 |  | 
CCC(O)(c1cc(F)c2c(c1)C(=O)N(Cc1ncc(C#N)cn1)[C@@]2(OCC1(F)COC1)c1ccc(Cl)cc1)c1cn(C)cn1 (stereo partly drawn) [Example 470, 2-{[(1R)-1-(4-chlorophenyl)-7-fluoro-1-[(3-fluorooxetan-3-yl)methoxy]-5-[1-hydroxy-1-(1-methyl-1H-imidazol-4-yl)propyl]-3-oxo-2,3-dihydro-1H-isoindol-2-yl]methyl}pyrimidine-5-carbonitrile] | 0.1 | 3 |  | 
CCC(O)(c1cc(F)c2c(c1)C(=O)N(Cc1ncc(Cl)cn1)[C@@]2(O[C@H]1C[C@@H](O)C1)c1ccc(Cl)cc1)c1cn(C)cn1 (stereo partly drawn) [Example 464, (3R)-3-(4-chlorophenyl)-2-[(5-chloropyrimidin-2-yl)methyl]-4-fluoro-6-[1-hydroxy-1-(1-methyl-1H-imidazol-4-yl)propyl]-3-[cis-3-hydroxycyclobutoxy]-2,3-dihydro-1H-isoindol-1-one] |  | 46 | 0.18 | 
CC[C@@](O)(c1cc(F)c2c(c1)C(=O)N(Cc1ncc(C#N)cn1)[C@@]2(OCCO)c1ccc(Cl)cc1)C1(F)CCOCC1 [Example 509, 2-{[(1R)-1-(4-chlorophenyl)-7-fluoro-5-[(1R)-1-(4-fluorooxan-4-yl)-1-hydroxypropyl]-1-(2-hydroxyethoxy)-3-oxo-2,3-dihydro-1H-isoindol-2-yl]methyl}pyrimidine-5-carbonitrile] |  | 6 | 0.042 | 
CCC(O)(c1cc(F)c2c(c1)C(=O)N(Cc1ncc(C#N)cn1)[C@@]2(O[C@H]1CCOC1)c1ccc(Cl)cc1)c1ccn(C)n1 (stereo partly drawn) [Example 490, 2-{[(1R)-1-(4-chlorophenyl)-7-fluoro-5-[1-hydroxy-1-(1-methyl-1H-pyrazol-3-yl)propyl]-3-oxo-1-[(3S)-oxolan-3-yloxy]-2,3-dihydro-1H-isoindol-2-yl]methyl}pyrimidine-5-carbonitrile] | 0.27 | 0 |  | 
[2H]C([2H])(O)C1(C([2H])([2H])O[C@]2(c3ccc(Cl)cc3)c3c(F)cc(C(C)(O)CC)cc3C(=O)N2Cc2ncc(C#N)cn2)CC1 (single isomer, unassigned) [Example 576] |  | 5 | 0.14 | 
CC[C@@](O)(c1cc(F)c2c(c1)C(=O)N(Cc1ncc(Cl)cn1)[C@@]2(OCCO)c1ccc(Cl)cc1)C1(F)CCOCC1 [Example 501, (3R)-3-(4-chlorophenyl)-2-[(5-chloropyrimidin-2-yl)methyl]-4-fluoro-6-[(1R)-1-(4-fluorooxan-4-yl)-1-hydroxypropyl]-3-(2-hydroxyethoxy)-2,3-dihydro-1H-isoindol-1-one] |  |  | 0.022 | inhibition at 3 µM (SN40R2 cells; read-out: SN40R2 % inhibition at 3): 8%
CO[C@]1(c2ccc(Cl)cc2)c2c(F)cc(C(C)(O)c3nccs3)cc2C(=O)N1Cc1ccc(Cl)cn1 (single isomer, unassigned) [Example 165] |  |  |  | IC50 (SJSA-1 cells; [3]): 1.4 µM; IC50 (SN40R2 cells): 13 µM
CC(O)(c1cc(F)c2c(c1)C(=O)N(Cc1ncc(Cl)cn1)[C@@]2(OCC1(CO)CC1)c1ccc(Cl)cc1)[C@H]1CC[C@H](O)CC1 (stereo partly drawn) [Example 401, (3R)-3-(4-chlorophenyl)-2-[(5-chloropyrimidin-2-yl)methyl]-4-fluoro-6-{1-hydroxy-1-[trans-4-hydroxycyclohexyl]ethyl}-3-{[1-(hydroxymethyl)cyclopropyl]methoxy}-2,3-dihydro-1H-isoindol-1-one] | 0.0098 | 6 |  | 
CCC(O)(c1cc(F)c2c(c1)C(=O)N(Cc1ccc(C#N)cn1)[C@@]2(OCCO)c1ccc(Cl)cc1)c1cscn1 (single isomer, unassigned) [Example 333] |  | 5 | 0.22 | 
CO[C@]1(c2ccc(Cl)cc2)c2c(F)cc(C(C)(O)c3ncc[nH]3)cc2C(=O)N1Cc1ccc(Cl)cn1 (single isomer, unassigned) [Example 163] |  |  |  | IC50 (SJSA-1 cells; [4]): 3.1 µM; IC50 (SN40R2 cells): 13 µM
CCC(O)(CN1CCN(C)CC1)c1cc(F)c2c(c1)C(=O)N(Cc1ncc(Cl)cn1)[C@@]2(OCC1(C#N)CC1)c1ccc(Cl)cc1 (single isomer, unassigned) [Example 534] | 0.7 | 44 |  | 
Cn1cc(C(C)(O)c2cc(F)c3c(c2)C(=O)N(Cc2ccc(Cl)cn2)[C@@]3(OCC2(CO)CC2)c2ccc(Cl)cc2)cn1 (stereo partly drawn) [Example 346, (3R)-3-(4-chlorophenyl)-2-[(5-chloropyridin-2-yl)methyl]-4-fluoro-6-[1-hydroxy-1-(1-methyl-1H-pyrazol-4-yl)ethyl]-3-{[1-(hydroxymethyl)cyclopropyl]methoxy}-2,3-dihydro-1H-isoindol-1-one] |  |  |  | IC50 (SJSA-1 cells; [4]): 0.012 µM; IC50 (SN40R2 cells): 12 µM
CC(O)(c1cc(F)c2c(c1)C(=O)N(Cc1ncc(Cl)cn1)[C@@]2(OCCO)c1ccc(Cl)cc1)C1(F)CCOCC1 (stereo partly drawn) [Example 578, (3R)-3-(4-chlorophenyl)-2-[(5-chloropyrimidin-2-yl)methyl]-4-fluoro-6-[1-(4-fluorooxan-4-yl)-1-hydroxyethyl]-3-(2-hydroxyethoxy)-2,3-dihydro-1H-isoindol-1-one] |  | 4 | 0.12 | 
CO[C@]1(c2ccc(Cl)cc2)c2c(F)cc(C(C)(O)c3cn(C)c(C)n3)cc2C(=O)N1Cc1ccc(Cl)cn1 (stereo partly drawn) [Example 162, (3R)-3-(4-Chlorophenyl)-2-[(5-chloropyridin-2-yl)methyl]-6-[1-(1,2-dimethyl-1H-imidazol-4-yl)-1-hydroxyethyl]-4-fluoro-3-methoxy-2,3-dihydro-1H-isoindol-1-one] |  |  |  | IC50 (SJSA-1 cells; [3]): 0.22 µM; IC50 (SN40R2 cells): 13 µM
CCC(O)(c1cc(F)c2c(c1)C(=O)N(Cc1ccc(C#N)cn1)[C@@]2(OCC1(CO)CC1)c1ccc(Cl)cc1)c1cn(C)cn1 (single isomer, unassigned) [Example 338] | 1.5 | 6 |  | 
CCC(O)(CN1CCN(C)CC1)c1cc(F)c2c(c1)C(=O)N(Cc1ncc(Cl)cn1)[C@@]2(O[C@H]1CCOC1)c1ccc(Cl)cc1 (single isomer, unassigned) [Example 522] | 0.048 | 24 |  | 
CCC(O)(c1cc(F)c2c(c1)C(=O)N(Cc1ccc(C#N)cn1)[C@@]2(OCC1(F)COC1)c1ccc(Cl)cc1)c1cn(C)cn1 (stereo partly drawn) [Example 435, 6-{[(1R)-1-(4-chlorophenyl)-7-fluoro-1-[(3-fluorooxetan-3-yl)methoxy]-5-[1-hydroxy-1-(1-methyl-1H-imidazol-4-yl)propyl]-3-oxo-2,3-dihydro-1H-isoindol-2-yl]methyl}pyridine-3-carbonitrile] |  | 0 | 0.015 | 
CO[C@]1(c2ccc(Cl)cc2)c2c(F)cc(C(C)(O)C3CN(C)C3)cc2C(=O)N1Cc1ccc(Cl)cn1 (stereo partly drawn) [Example 307, (3R)-3-(4-chlorophenyl)-2-[(5-chloropyridin-2-yl)methyl]-4-fluoro-6-[1-hydroxy-1-(1-methylazetidin-3-yl)ethyl]-3-methoxy-2,3-dihydro-1H-isoindol-1-one] |  |  |  | IC50 (SJSA-1 cells; [4]): 1.9 µM; IC50 (SN40R2 cells): 11 µM

From US11236047B2 (ASTEX THERAPEUTICS LIMITED, priority 2017, dated 2022)
